In patent US8785416B2, “Sulphated disaccharides for the treatment of neurodegenerative and/or neurovascular diseases” (Bioiberica, S.A., priority 2009, dated 2014):

Tests used:
[1] = system: SH-SY5Y human neuroblastoma cells; assay: Generation of intracellular reactive oxygen species (ROS) after hydrogen peroxide, DCFDA fluorescence; assay type: cell-based
From the text: To determine the production of free radicals, the fluorescent probe 2″-7″-dichlorodihydrofluorescein diacetate (DCFDA) was used, which is sensitive to the presence of free radicals, such that when the latter are intracellularly generated there is an increase of fluorescence.
When the fluorescent probe passes into the cell, intracellular esterases hydrolyze the probe, transforming it into DCFH2. Peroxidases, cytochrome C and Fe^2+ can oxidize the probe to DCF in the presence of hydrogen peroxide, and the accumulation of DCF in the cell can be measured as an increase of fluorescence at 530 nm when it is excited at 485 nm.
SH-SY5Y human neuroblastoma cells were cultured following the procedure described in Example 3.
For the fluorescence assays, the cells were seeded in 96-well plates with opaque walls at a density of 10,000 cells/well. […]
To evaluate the effects of compound Ic on the generation of ROS, the cells were incubated with increasing concentrations of compound Ic (0.01 and 0.1 μM) for 24 hours and then they were preincubated with the fluorescent probe DCFDA for 45 minutes. Subsequently, the baseline fluorescence of each well, both of the wells containing cells and compound Ic and of those containing only the cells, was quantified. […] The baseline fluorescence of each well containing compound Ic was subtracted from it in order to obtain the net fluorescence. […]

TNFα = TNFα production in LPS-activated cerebral cortex astrocytes (RT-PCR); assay type: cell-based, rat; settings: 0.03 μM, simultaneous with 10 μg/mL LPS for 2 hours
Experimental: Newborn male rats aged 2-3 days were used. After a craniotomy, both cortices were extracted and deposited in a Petri dish with cold PBS. Under a microscope magnifying lens, the meninges of each cortex were extracted. Once clean, they were submersed in cold DMEM and a mechanical dissection was performed with a pipette. Then, the sample was centrifuged at 1,000 rpm for 5 minutes and the supernatant was decanted. The precipitate was resuspended in DMEM with 20% FBS and a mixture of antibiotics (penicillin/streptomycin). Finally, it was passed through a 70 μm filter and seeded in a 75 cm^2 flask with an aerated filter stopper. The calculation for the seeding of the cells was one flask (15 mL of medium) for every newborn used. […]
Subsequently, the medium of each flask was collected and taken to 50 mL Falcon tubes, they were centrifuged for 5 minutes at 1,000 rpm and the supernatant was decanted. The precipitate was resuspended in DMEM with 10% FBS and antibiotics and the cells were counted for their subsequent seeding.
The induction of inflammation in the astrocytes was performed by means of adding 10 μg/mL lipopolysaccharide together with the compounds to be studied (compound Ic at 0.03 μM and chondroitin sulphate at 10 μM) for 2 hours. […] The quantification was performed by the direct measurement of absorbance at 260/280 nm in a Nanodrop® spectrophotometer. […]

methyl 2-acetamido-2-deoxy-3-O-(β-D-glucopyranosyluronic acid)-4,6-di-O-sulpho-α-D-glucopyranoside, trisodium salt [compound Ic]
reduction in the formation of free radicals induced by hydrogen peroxide ([1]; 0.1 μM, 24 hours incubation before 50 μM hydrogen peroxide): 40%
ROS generated by hydrogen peroxide at 30 and 60 minutes ([1]; cells treated 24 hours with compound (0.01 and 0.1 μM) before 50 μM hydrogen peroxide): significantly reduced
reduction of the production of TNFα (TNFα): 75%
